Measurements as given in patent US20230116399A1, “Tumor Homing Statin Derivatives” (Da Zen Theranostics, Inc., priority 2019, published 2023).
Where two headings read alike, the source gives them in different places.

Legend:
[1] = tested on: RhoA/B in H-1975 human lung cancer tumors; assay: RhoA/B membrane staining of tumor tissue, H-1975 mouse model; assay type: in vivo, mice; settings: 5 mg/kg
Protocol: RhoA/RhoB membrane staining of tumor tissue of a H-1975 human lung cancer cell mouse model is performed as described below, and the tumor-bearing mice are treated with a THSD (here an ALSD of formula FIId, “DZ2a”, compound 7) in comparison to the corresponding unconjugated dye (“DZ1”) and to Gefinitib (an EGFR inhibitor drug used for treatment of certain breast, lung and other cancers).
H-1975 cells, a cell model for human lung cancer that is resistant to Gefitinib (an EGFR inhibitor drug used for treatment of certain breast, lung and other cancers) are cultured as described above and injected subcutaneously into mice to develop tumors. The mice and the tumors that are formed are systemically exposed to an ALSD (here of formula FIId, “DZ2a”, compound 7) by intravenous injection. The tumor-bearing mice are treated with either Gefitinib (20 mg/kg), or with an ALSD (here of formula FIId, “DZ2a”, compound 7, 5 mg/kg), an unconjugated dye of formula III (“DZ1”, 5 mg/kg) or a combination of the ALSD with Gefitinib.
For immunostaining of tumor tissue, the animals are sacrificed by prescribed and approved euthanasia techniques. Tumor tissue (maximum thickness 3 mm) is sliced, formalin fixated, embedded into paraffin blocks which are sectioned and processed into paraffin section slides. […]

[2] = tested on: 22RV1 prostate cancer cells; assay: Cell viability by trypan blue counting, 22RV1; assay type: cell-based, human; settings: read-out: IC50 for reduction of cell viability/growth inhibition
Protocol: Cell culture: In the following examples, unless otherwise specified, all cell lines are purchased from American Type Culture Collection and cultured in American Type Culture Collection (ATCC)-recommended media, with fetal bovine serum (FBS) to a final concentration of 10% and 1×penicillin/streptomycin at 37° C. with 5% CO2 in a cell culture incubator, unless otherwise specified. Unless otherwise specified, culture is 2D. Where culture is 3D, low attachment plates are used, with the same media. C4-2B (parental cell line and drug-resistant cells derived therefrom) are cultured in RPMI-1640 with 10% FBS. MDVR cells (an Enzalutamide-resistant variety of C4-2B prostate cancer cells formed as described in Example 4 below) are cultured as indicated for the parental C4-2B cells. 22RV1 Prostate Cancer (PC) cells (ATCC® CRL-2505™, a human prostate carcinoma cell line of epithelial morphology) are cultured in RPMI-1640 with 10% FBS. […]
Example 1B: Prostate Cancer (PC) cells (22RV1, ATCC® CRL-2505™, a human prostate carcinoma cell line) are cultured according to the standard protocol, and exposed for 24-48 hours, to 0-50 μM of the respective compound (THSD, unconjugated dye). Cell viability is determined by counting viable cells and dead cells after treatment of the cells with trypan blue dye to distinguish viable from dead cells. […]

IC50 ([2]; 22RV1, exposed 24-48 hours, listed as unconjugated statin) [µM] | IC50 ([2]; Homo sapiens, 22Rv1, 22RV1, exposed 24-48 hours) [µM] | SMILES | RhoA/B staining of tumor cell membranes [1]
– | – | CC1(C)C(/C=C/C2=C(Cl)C(=C/C=C3/N(CCCCCC(=O)O)c4ccccc4C3(C)C)/CCC2)=[N+](CCCCS(=O)(=O)[O-])c2ccccc21 [DZ1] | staining persists in the membranes
> 50 | > 60 | CCC(C)(C)C(=O)O[C@H]1C[C@@H](C)C=C2C=C[C@H](C)[C@H](CC[C@@H]3C[C@@H](O)CC(=O)O3)[C@H]21 [Simvastatin] | –
